# From patent publication US20120295805A1, “SOLID PHASE METHODS FOR THE[…] KINETIC QUANTIFICATION OF INTERACTIONS BETWEEN NUCLEIC ACIDS AND SMALL MOLECULES” (priority 2011, published 2012)
# Tests used:
# [1] = tested on: 10mer DNA sequence AGAATTGAGT possessing a high-affinity site (-AATT-); assay: Electrochemically-determined surface melt curves (solid phase DNA denaturation, cyclic voltammetry of ferrocene-labeled strand); format: binding; settings: 2×10^−6 M netropsin
# Excerpt: (B) Shape comparison of solution and surface melting transitions.
# In this example, one strand was immobilized while the electroactively-labeled complementary strand was present in solution. Immobilization was realized through a single thiolate (—S—Au) linkage between DNA and the gold electrode support, with mercaptohexanol passivation used to block the remaining surface. (86) Hybridization occurred to the extent governed by thermodynamics under the imposed conditions of temperature and drug concentration. The extent of hybridization was tracked as a function of temperature with cyclic voltammetry, which allows determination of the coverage of double-stranded molecules from the total charge derived from their ferrocene labels. (87-88)
# A number of noteworthy conclusions follow from FIG. 5A. The cooling and heating cycles superpose, confirming closeness to equilibrium at the tested scan rate of 0.4° C./min.
# This is expected since netropsin prefers to bind to double-stranded DNA. (89) The free energy of binding (i.e. affinity) determined from the surface approach (FIG. 5A) is in reasonable agreement with solution methods. […]
# [2] = tested on: MB 5′ Fluorescein-CAATTCCTCT12GAATTG-BHQ1-C7-Amine 3′ with high affinity AATT site in the stem; assay: TIRF-imaged melt curves of surface-immobilized molecular beacons (MB microarray); format: binding; settings: 2 μM netropsin, 0.1 M pH 7 phosphate buffer, average of 9 spots
# Procedure: The field of view is 4 mm diameter. (B) Melting curves of surface-immobilized MBs without and with 2 μM netropsin in 0.1 M phosphate buffer. […] (C) Melting curves under same conditions as in (B), but for MBs in solution. MBs were assumed closed once data with and without netropsin converged at lower temperatures.
# BHQ1 is Black Hole Quencher 1, and the 3′ amine is used for surface immobilization via the stem. Repetition with the same MBs printed on commercial aldehyde microarray slides produced a 4-fold gain with transition observed at a similar temperature, FIG. 2A. […] (56-65) In such studies, opening of the MBs is driven by hybridization at the loop section, as opposed to thermal denaturation as in the data of FIG. 2. Efforts to improve the hybridization-induced gains included optimization of pH and salt composition (60-61, 63), insertion of spacers to distance MBs from the solid support, (63) changes in the chemical nature of the solid support (60-61), and isolation of MBs on the surface down to the single-molecule limit. (62) These approaches, however, have not solved the decreased gain, although effective workarounds have been found for hybridization applications (e.g. use of the solid support itself to provide better quenching (66-70)). Surface-immobilized SPs have also produced approximately 4-fold gains upon hybridization. (64) […]
# DNA = settings: reported for 0.016 M Na+ in ref. 38, corrected to 0.8 M Na+ using ref. 76; cited from earlier work
smiles,measurement,setting,value
Cn1cc(NC(=O)c2cc(NC(=O)CN=C(N)N)cn2C)cc1C(=O)NCCC(=N)N [netropsin],Effect on denaturation transition (electrochemical melt curve),"[1]; 0.5 M pH 7 sodium phosphate buffer, scan rate 0.4° C./min",shifts denaturation to higher temperatures
same,ΔΔG°25C (increment of ΔG° of melting attributed to the drug; free energy of binding),"[1]; surface approach, 0.5 M pH 7 sodium phosphate buffer (0.8 M Na+), calculated at 25° C. from fitted ΔH° and ΔS°",-8.9 kcal/mol
same,Effect on melt transition (TM) of surface-immobilized MBs,[2],TM shifting to higher temperatures
same,ΔΔG°25C based on solution methods,DNA,-9.2 kcal/mol
